In patent US9096524B2, “Anthelmintic agents and their use” (Intervet International B.V., priority 2009, dated 2015) one finds minimal effective concentration data, which are given here for 53 molecules.

The structures appear in SMILES notation.

One assay has as its system A. galli (intestinal roundworm of chicken) larval stage 3; O. dentatum (nodular worm of swine) larval stages 3 and 4. Put plainly: Activity against Ascaridia galli and Oesophagostomum dentatum larvae in vitro (minimum effective concentration). The settings on record: in vitro; one or more of A. galli L3, O. dentatum L3, L4; threshold 1 μM; read-out: MEC (minimum effective concentration) against one or more of the tested nematodes. In kind it is cell-based.
`CC(C)(C)c1ccc(N2CCN(CCCC(=O)N3CCC(Oc4ccc([N+](=O)[O-])c(C(F)(F)F)c4)CC3)CC2)cc1` [Example 258]: the minimal effective concentration is < 1 µM.

In the case of `O=C(CCCN1CCN(c2ccc(Cl)cc2)CC1)N1CCC(Oc2ccc([N+](=O)[O-])c(C(F)(F)F)c2)CC1` [Example 259], the minimal effective concentration was < 1 µM.

As to `O=C(CCCN1CCN(c2ccc(F)cc2)CC1)N1CCC(Oc2ccc([N+](=O)[O-])c(C(F)(F)F)c2)CC1` [Example 261], the minimal effective concentration is < 1 µM.

Turning to `O=C(CCN1CCN(c2ccc(C(F)(F)F)cc2)CC1)N1CC[C@H](Nc2ccc([N+](=O)[O-])c(C(F)(F)F)c2)C1` [Example 285], the minimal effective concentration was < 1 µM.

Turning to `COc1ccc(N2CCN(CCC(=O)N3CC[C@H](Nc4ccc([N+](=O)[O-])c(C(F)(F)F)c4)C3)CC2)cc1` [Example 289], the minimal effective concentration was < 1 µM.

In the case of `CCCCC(=O)N1CCC(OCC(=O)N2CCC(Nc3ccc([N+](=O)[O-])c(C(F)(F)F)c3)CC2)CC1` [Example 291], the minimal effective concentration is < 1 µM.

Consider `CC(C)(C)c1ccc(N2CCN(CCC(=O)N3CCC(Nc4ccc(C(F)(F)F)cn4)CC3)CC2)cc1` [Example 329], for which the minimal effective concentration is < 1 µM.

As to `CCOC(=O)c1ccc(NC2CCN(C(=O)CCCN3CCN(c4ccc(Cl)cc4)CC3)CC2)cc1` [Example 338], the minimal effective concentration was < 1 µM.

For `CC(C)(C)c1ccc(N2CCN(CCC(=O)N3CCC(Nc4ccc(S(C)(=O)=O)c(C(F)(F)F)c4)CC3)CC2)cc1` [Example 340], the minimal effective concentration was < 1 µM.

Turning to `CS(=O)(=O)c1ccc(NC2CCN(C(=O)CCN3CCN(c4ccc(Cl)cc4)CC3)CC2)cc1C(F)(F)F` [Example 341], the minimal effective concentration was < 1 µM.

Consider `CS(=O)(=O)c1ccc(NC2CCN(C(=O)CCCN3CCN(c4ccc(Cl)cc4)CC3)CC2)cc1C(F)(F)F` [Example 343], for which the minimal effective concentration is < 1 µM.

`CC(C)(C)c1ccc(N2CCN(CCC(=O)N3CCC(Nc4cccc(C#N)c4)CC3)CC2)cc1` [Example 351]: the minimal effective concentration was < 1 µM.

Take `O=C(CCCN1CCN(c2ccc(Cl)cc2)CC1)N1CCC(Nc2ccc(Cl)c(SC(F)(F)F)c2)CC1` [Example 359]: the minimal effective concentration was < 1 µM.

Take `COc1cc(NC2CCN(C(=O)CCN3CCC(c4ccc(Oc5ccccc5)cc4)CC3)CC2)ccc1[N+](=O)[O-]` [Example 376]: the minimal effective concentration is < 1 µM.

As to `COc1cc(NC2CCN(C(=O)CCN3CCC(c4ccc(C(C)(C)C)cc4)CC3)CC2)ccc1[N+](=O)[O-]` [Example 380], the minimal effective concentration is < 1 µM.

Regarding `CCOc1cc(NC2CCN(C(=O)CCN3CCC(c4ccc(C(C)(C)C)cc4)CC3)CC2)ccc1[N+](=O)[O-]` [Example 400], the minimal effective concentration is < 1 µM.

For the molecule `CCOc1cc(NC2CCN(C(=O)CCN3CCN(c4ccc(C(F)(F)F)cc4)CC3)CC2)ccc1[N+](=O)[O-]` [Example 402], the minimal effective concentration was < 1 µM.

Still in this assay, the particulars now being: in vitro; one or more of A. galli L3, O. dentatum L3, L4; threshold 7 μM; read-out: MEC (minimum effective concentration) against one or more of the tested nematodes.
For `CN(C)S(=O)(=O)c1ccc(NC2CCN(C(=O)CCCN3CCN(c4ccc(Cl)cc4)CC3)CC2)cc1C(F)(F)F` [Example 349], the minimal effective concentration is < 7 µM.

For `O=C(CCN1CCN(c2ccc(F)cc2F)CC1)N1CCC(Nc2ccc([N+](=O)[O-])c(C(F)(F)F)c2)CC1` [Example 370], the minimal effective concentration is < 7 µM.

On to `CCCc1ccc(C2CCN(CCC(=O)N3CCC(Nc4ccc([N+](=O)[O-])c(OC)c4)CC3)CC2)cc1` [Example 379], for which the minimal effective concentration was < 7 µM.

Consider `COc1cc(NC2CCN(C(=O)CCN3CCC(c4ccc(C(C)(C)C)cc4)CC3)CC2)ccc1[N+](=O)[O-]` [Example 380], for which the minimal effective concentration is < 7 µM.

On to `COc1cc(NC2CCN(C(=O)CCN3CCN(c4ccc(C(F)(F)F)cc4)CC3)CC2)ccc1[N+](=O)[O-]` [Example 382], for which the minimal effective concentration was < 7 µM.

With `COc1cc(NC2CCN(C(=O)CCN3CCN(c4ccc(Cl)c(C(F)(F)F)c4)CC3)CC2)ccc1[N+](=O)[O-]` [Example 384], the minimal effective concentration is < 7 µM.

Regarding `CCCc1ccc(C2CCN(CCC(=O)N3CCC(Nc4ccc([N+](=O)[O-])c(OCC)c4)CC3)CC2)cc1` [Example 399], the minimal effective concentration was < 7 µM.

Consider `CCOc1cc(NC2CCN(C(=O)CCN3CCC(c4ccc(C(C)(C)C)cc4)CC3)CC2)ccc1[N+](=O)[O-]` [Example 400], for which the minimal effective concentration is < 7 µM.

For `CCOc1cc(NC2CCN(C(=O)CCN3CCN(c4ccc(C(F)(F)F)cc4)CC3)CC2)ccc1[N+](=O)[O-]` [Example 402], the minimal effective concentration was < 7 µM.

`CCOc1cc(NC2CCN(C(=O)CCN3CCN(c4ccc(Cl)cc4)CC3)CC2)ccc1[N+](=O)[O-]` [Example 405]: the minimal effective concentration was < 7 µM.

As for `CCOc1cc(NC2CCN(C(=O)CCN3CCN(c4ccc(OCc5ccccc5)cc4)CC3)CC2)ccc1[N+](=O)[O-]` [Example 407], the minimal effective concentration is < 7 µM.

For `CCOc1cc(NC2CCN(C(=O)CCN3CCN(c4ccc(OC)cc4)CC3)CC2)ccc1[N+](=O)[O-]` [Example 408], the minimal effective concentration is < 7 µM.

As for `CCOc1cc(NC2CCN(C(=O)CCN3CCN(c4ccc(Cl)cc4F)CC3)CC2)ccc1[N+](=O)[O-]` [Example 410], the minimal effective concentration is < 7 µM.

Still in this assay, the particulars now being: in vitro; two or more of A. galli L3, O. dentatum L3, L4; threshold 1 μM; read-out: MEC (minimum effective concentration) against two or more of the tested nematodes.
In the case of `O=C(CCN1CCN(c2ccc(Cl)c(C(F)(F)F)c2)CC1)N1CCC(Oc2ccc([N+](=O)[O-])c(C(F)(F)F)c2)CC1` [Example 218], the minimal effective concentration was < 1 µM.

Take `CC(C)(C)c1ccc(N2CCN(CCC(=O)N3CCC(Oc4ccc([N+](=O)[O-])c(C(F)(F)F)c4)CC3)CC2)cc1` [Example 220]: the minimal effective concentration is < 1 µM.

As for `O=C(CCN1CCN(c2cccc(OC(F)(F)F)c2)CC1)N1CCC(Oc2ccc([N+](=O)[O-])c(C(F)(F)F)c2)CC1` [Example 225], the minimal effective concentration is < 1 µM.

For `O=C([C@@H]1CCC[C@H](C(=O)N2CCC(Nc3ccc([N+](=O)[O-])c(C(F)(F)F)c3)CC2)C1)N1CCN(c2ccccc2)CC1` [Example 227], the minimal effective concentration is < 1 µM.

Take `O=C(C1CCC[C@H](C(=O)N2CCN(c3ccccc3)CC2)C1)N1CCC(Oc2ccc([N+](=O)[O-])c(C(F)(F)F)c2)CC1` (stereo partly drawn) [Example 228]: the minimal effective concentration is < 1 µM.

With `O=C(CCN1CCN(C2CCCCC2)CC1)N1CCC(Nc2ccc([N+](=O)[O-])c(C(F)(F)F)c2)CC1` [Example 241], the minimal effective concentration is < 1 µM.

With `Cc1ccc(N2CCN(CCS(=O)(=O)N3CCC(Nc4ccc([N+](=O)[O-])c(C(F)(F)F)c4)CC3)CC2)cc1` [Example 243], the minimal effective concentration was < 1 µM.

As to `O=[N+]([O-])c1ccc(NC2CCN(S(=O)(=O)CCN3CCN(c4ccc(C(F)(F)F)cc4)CC3)CC2)cc1C(F)(F)F` [Example 245], the minimal effective concentration was < 1 µM.

With `O=[N+]([O-])c1ccc(NC2CCN(S(=O)(=O)CCN3CCN(C4CCCCC4)CC3)CC2)cc1C(F)(F)F` [Example 248], the minimal effective concentration is < 1 µM.

Take `COc1ccc(N2CCN(CCC(=O)N3CCC(Nc4ccc([N+](=O)[O-])c(C(F)(F)F)c4)CC3)CC2)cc1` [Example 254]: the minimal effective concentration was < 1 µM.

In the case of `O=C(CCN1CCN(c2ccc(C(F)(F)F)cn2)CC1)N1CCC(Nc2ccc([N+](=O)[O-])c(C(F)(F)F)c2)CC1` [Example 255], the minimal effective concentration was < 1 µM.

Turning to `O=C(CCCN1CCN(c2ccc(C(F)(F)F)cc2)CC1)N1CCC(Nc2ccc(C(F)(F)F)cc2)CC1` [Example 269], the minimal effective concentration was < 1 µM.

As to `COc1ccc(NC2CCN(C(=O)CCCN3CCN(c4ccc(C(F)(F)F)cc4)CC3)CC2)cc1` [Example 270], the minimal effective concentration was < 1 µM.

For the molecule `O=C(CCN1CCN(c2ccc(C(F)(F)F)cc2)CC1)N1CCC(Nc2cccc(C(F)(F)F)c2)CC1` [Example 276], the minimal effective concentration was < 1 µM.

On to `N#Cc1ccc(NC2CCN(C(=O)CCN3CCN(c4ccc(C(F)(F)F)cc4)CC3)CC2)cc1` [Example 283], for which the minimal effective concentration was < 1 µM.

Consider `COc1ccc(N2CCN(CCC(=O)N3CC[C@H](Nc4ccc([N+](=O)[O-])c(C(F)(F)F)c4)C3)CC2)cc1` [Example 289], for which the minimal effective concentration was < 1 µM.

`CC(C)(C)c1ccc(N2CCN(CCC(=O)N3CCC(Nc4ccc(S(=O)(=O)c5ccc(F)cc5)cc4)CC3)CC2)cc1` [Example 294]: the minimal effective concentration is < 1 µM.

For the molecule `C[S+]([O-])c1ccc(NC2CCN(C(=O)CCN3CCN(c4ccc(C(C)(C)C)cc4)CC3)CC2)cc1C(F)(F)F` (stereo not drawn) [Example 299], the minimal effective concentration is < 1 µM.

As for `CS(=O)(=O)c1ccc(NC2CCN(C(=O)CCN3CCN(c4ccc(Cl)cc4)CC3)CC2)cc1C(F)(F)F` [Example 341], the minimal effective concentration is < 1 µM.

Regarding `CN(C)S(=O)(=O)c1ccc(NC2CCN(C(=O)CCN3CCN(c4ccc(Cl)cc4)CC3)CC2)cc1C(F)(F)F` [Example 346], the minimal effective concentration was < 1 µM.

In the case of `COc1ccc(N2CCN(CCC(=O)N3CCC(Nc4ccc([N+](=O)[O-])c(C(F)(F)F)c4)CC3)CC2)cc1OC` [Example 368], the minimal effective concentration was < 1 µM.

For `COc1cc(NC2CCN(C(=O)CCN3CCN(c4ccc(C(F)(F)F)cc4)CC3)CC2)ccc1[N+](=O)[O-]` [Example 382], the minimal effective concentration is < 1 µM.

Regarding `CCOc1cc(NC2CCN(C(=O)CCN3CCN(c4ccc(C(F)(F)F)cc4)CC3)CC2)ccc1[N+](=O)[O-]` [Example 402], the minimal effective concentration is < 1 µM.

In the case of `O=C(CCN1CCN(c2ccc(Cl)cc2)CC1)N1CCC(Oc2ccc([N+](=O)[O-])c(C(F)(F)F)c2)CC1` [Example 421], the minimal effective concentration is < 1 µM.

Take `O=C(CCN1CCN(c2ccc(OCc3ccccc3)cc2)CC1)N1CCC(Oc2ccc([N+](=O)[O-])c(C(F)(F)F)c2)CC1` [Example 423]: the minimal effective concentration was < 1 µM.

For `COc1ccc(N2CCN(CCC(=O)N3CCC(Oc4ccc([N+](=O)[O-])c(C(F)(F)F)c4)CC3)CC2)cc1OC` [Example 424], the minimal effective concentration was < 1 µM.

The same assay, now with this note: read-out: MEC (minimum effective concentration) against two or more of the tested nematodes, in vitro; two or more of A. galli L3, O. dentatum L3, L4; threshold 1 μM.
For the molecule `O=C(CCCN1CCN(c2ccc(C(F)(F)F)cc2)CC1)N1CCC(Nc2ccc(Cl)c(Cl)c2)CC1` [Example 272], the minimal effective concentration was < 1 µM.

For the molecule `O=C(CCCN1CCN(c2ccc(C(F)(F)F)cc2)CC1)N1CCC(Nc2ccc(Cl)cc2)CC1` [Example 273], the minimal effective concentration is < 1 µM.

Consider `O=C(CCN1CCN(c2ccc(C(F)(F)F)cc2)CC1)N1CCC(Nc2ccc(Cl)cc2)CC1` [Example 282], for which the minimal effective concentration was < 1 µM.

For the molecule `CSc1ccc(NC2CCN(C(=O)CCCN3CCN(c4ccc(C(C)(C)C)cc4)CC3)CC2)cc1C(F)(F)F` [Example 317], the minimal effective concentration was < 1 µM.
